Patent publication US4672036A, “Pure cultures of Kibdelsporangium aridum Shearer gen. nov., sp. nov. ATCC 39323 and mutants thereof” (SmithKline Beckman Corporation, priority 1985, dated 1987)
Converted amounts (≈) assume the structure as drawn. “And” between values parts separate entries of the source, which are not always exact repeats. Equal values may be shown once. Read-outs that look alike come from different tables or passages of the source.

Legend:
[1] = test system: Staph. aureus SK & F 2666; type: cell-based; settings: Staphylococcus aureus
[2] = test system: Staph. aureus SK & F 2594; type: cell-based; settings: Staphylococcus aureus
[3] = test system: Staph. aureus SK & F 2776; type: cell-based; settings: Staphylococcus aureus
[4] = test system: Enterobacter cloacae HH31254; type: cell-based; settings: Enterobacter cloacae, HH31254
[5] = test system: Staph. aureus SK & F 2616; type: cell-based; settings: Staphylococcus aureus
[6] = test system: Staph. aureus SK & F 2736; type: cell-based; settings: Staphylococcus aureus
[7] = test system: Kleb. pneumoniae 4200 (SK & F 798); type: cell-based; settings: Klebsiella pneumoniae
B. fragilis SK & F 3060 = type: cell-based, Bacteroides fragilis; settings: Bacteroides fragilis
Staph. aureus HH 127 = experiment: animal or person; settings: Staphylococcus aureus, HH127, in Mus musculus
B. fragilis H145 = type: cell-based, Bacteroides fragilis; settings: Bacteroides fragilis, H145
[8] = test system: Salmonella gallinarum BC595; experiment: microbe, parasite or virus in culture; settings: Salmonella enterica
[9] = test system: Pseudomonas aeruginosa HH63; type: cell-based; settings: Pseudomonas aeruginosa, HH63
[10] = test system: Staph. aureus SK & F 2613; type: cell-based; settings: Staphylococcus aureus
Swine in vitro model = experiment: swine in vitro model (growth promotant activity)
K. aridum = experiment: susceptibility of K. aridum to antibiotics, disk diffusion method; type: cell-based, Kibdelosporangium aridum; settings: disk 30 μg
Procedure: Susceptibility of K. aridum to antibiotics was examined by placing BBL susceptibility disks on nutrient agar plates seeded with K. aridum as an overlay. Diameters of the zones of inhibition were measured after incubation for one week at 28° C.
Chlortetracycline ([…]) produced 18 mm zones of inhibition; tetracycline (5 μg) 11-12 mm zones; rifampin (5 μg) 11-15 mm zones; novobiocin (5 μg) 27-28 mm zones. All zones of inhibition contained at least a few resistant colonies.

Staph. aureus SK & F 674 = type: cell-based
[11] = test system: Staph. aureus SK & F 2677; type: cell-based; settings: Staphylococcus aureus
[12] = test system: Staph. epidermidis SK & F 2479; type: cell-based; settings: Staphylococcus epidermidis
[13] = test system: Staph. epidermidis SK & F 2683; type: cell-based; settings: Staphylococcus epidermidis
rumen in vitro model = rumen in vitro model (growth promotant activity); design: species or system steer
[14] = test system: Staph. aureus SK & F 2612; type: cell-based; settings: Staphylococcus aureus

CN[C@H](CC(C)C)C(=O)N[C@H]1C(=O)N[C@@H](CC(N)=O)C(=O)N[C@H]2C(=O)N[C@H]3C(=O)N[C@H](C(=O)N[C@H](C(=O)O)c4cc(O)cc(O)c4-c4cc3ccc4O)[C@H](O)c3ccc(c(Cl)c3)Oc3cc2cc(c3O[C@@H]2O[C@H](CO)[C@@H](O)[C@H](O)[C@H]2O[C@H]2C[C@](C)(N)[C@H](O)[C@H](C)O2)Oc2ccc(cc2Cl)[C@H]1O [Vancomycin, reference compound]
MIC [1]: 1.6 mg/L (≈ 1.1 µM)
MIC [2]: 1.6 mg/L (≈ 1.1 µM)
MIC [3]: 1.6 mg/L (≈ 1.1 µM)
MIC [4]: > 100 mg/L
MIC [5]: 0.8 mg/L (≈ 0.552 µM)
MIC [6]: 1.6 mg/L (≈ 1.1 µM)
MIC [7]: > 100 mg/L
MIC (B. fragilis SK & F 3060): 32 mg/L (≈ 22.1 µM)
ED50 (Staph. aureus HH 127): 1.76 mg/kg
MIC (B. fragilis H145): 32 mg/L (≈ 22.1 µM)
MIC ([8]; Table A): 25 mg/L (≈ 17.3 µM)
MIC ([8]; Table E): > 100 mg/L
MIC [9]: > 100 mg/L
MIC [10]: 1.6 mg/L (≈ 1.1 µM)
GLU (glucose) (Swine in vitro model): 190 % Control and 189 % Control
LAC (L-lactic acid) (Swine in vitro model): 64 % Control and 59 % Control
LYS (lysine) (Swine in vitro model): 48 % Control and 42 % Control and 83 % Control
susceptibility of K. aridum (K. aridum): resistant
MIC (Staph. aureus SK & F 674; Staphylococcus aureus): 1.6 mg/L (≈ 1.1 µM)
MIC (Staph. aureus SK & F 674; Table E): 1.6 mg/L (≈ 1.1 µM)
MIC [11]: 1.6 mg/L (≈ 1.1 µM)
MIC ([12]; Table A): 1.6 mg/L (≈ 1.1 µM)
MIC ([12]; Table E): 6.3 mg/L (≈ 4.35 µM)
MIC [13]: 6.3 mg/L (≈ 4.35 µM)
LYS (lysine) (rumen in vitro model): 85 % Control and 83 % Control
MIC [14]: 1.6 mg/L (≈ 1.1 µM)
